# Columns and labels:
# [1] = test system: primary cultured cerebral neurons; test: Aβ accumulation (6E10) and LC3 double staining; type: cell-based, rat; settings: Aβ 0.5 or 1 μM, HN-1703 0.1 or 0.5 μM, 12 or 24 hours, FIG. 4
# Description: Primary neurons culture was performed from the cerebral cortex of E16 embryos on embryonic day 16 of […] (SD, Orient Bio). Primary neurons culture (cortical neurons culture) was performed from the cerebral cortex of rat (SD, Orient Bio) embryonic 16-day (E16) embryos. The left and right hemispheres of the extracted brain were separated using sterile tweezers under a dissecting microscope, the meninges were peeled off, and then the cerebral cortex region was cut with No. 5 tweezers and collected in a Ca^2+/Mg^2+-free HBSS (Invitrogen), and mixed with an equal amount of 0.25% trypsin in a 15 ml tube and treated in a 37° C. water bath for 10 to 15 minutes. Thereafter, trypsin was inactivated by removing a portion of trypsin, leaving 1 to 2 ml of trypsin, and then adding the same amount of 20% FBS-DMEM. […]
# As confirmed in Experimental Example 2 that HN-1703 may effectively promote autophagy, it was evaluated whether HN-1703 may remove Aβ oligomers accumulated in cells. In the rat embryonic (E16) cerebral cortex region, primary cultured cerebral neurons were treated with […] or 1 μM Aβ and 0.1 μM or 0.5 μM HN-1703 for 12 or 24 hours, and accumulated Aβ was stained with a 6E10 antibody and autophagy formation was simultaneously double-stained with an LC3 antibody and measured, and cell nuclei were labeled with DAPI. […]
# [2] = test system: 5xFAD transgenic mice; test: Neuroinflammation, Iba-1 staining of brain slices; type: in vivo; settings: hippocampal dentate gyrus; compared to a 5xFAD-DMSO control group; FIG. 11
# Description: 5xFAD animals were administered with HN-1703 at three doses for 14 days to male heterozygotes aged 6 months (all born within 3 days). The behaviors of mice were measured in a dark cycle in which the mice were active while alternating light and dark in a 12-hour cycle in a breeding room chamber, and the mice were freely accessible to food and water and bred in compliance with experimental animal ethical guidelines of Kyung Hee University. In each group, the HN-1703 was intraperitoneally injected at the same time once a day in a volume of 100 μl to 12 mice in a normal group (wild type littermate), 9 5xFAD mice in a vehicle (DMSO administration), 8 5xFAD mice in a 5 mg/kg administered group, 9 5xFAD mice in a 10 mg/kg administered group, and 9 5xFAD mice in a 20 mg/kg administered group. […] In a behavioral measurement room, humidity (40 to 60%) and temperature (22 to 26° C.) were maintained, and reflected light was maintained to avoid sound and light effects. Behavioral measures were measured in Y-maze, Morris Water Maze, and Passive Avoidance test for 18 days in sequence.
# A brain slice immunostaining method was modified and used as described in Heo H et al. (J Ethnopharmacol, 2009). Mice were transcardially perfused with 4% PFA. […]
structure (smiles),measurement,setting,value
"COc1cc(OC)c2c(=O)c3cc4c(cc3oc2c1)OCO4 [HN-1703, 7,9-dimethoxy-10H-[1,3]dioxolo[4,5-b]xanthen-10-one]",Aβ accumulated in cells removed,[1],≥ 50%
same,increase of the area of LC3 puncta,[1]; concentration-dependent,≥ 4 times
same,Iba-1 staining (activated microglia),[2],significantly reduced

# — patent publication US12605358B2, “Composition for preventing or treating nervous system diseases comprising compound that inhibits mTOR signaling pathway as active ingredient” (ALIAD BIOPHARMA, priority 2021, dated 2026)
